Among the data in patent US9637473B2, “Acrylamide derivatives as antimalarial agents” (priority 2013, dated 2017) are IC50 values, retold here.

pIC50: −log10 of the molar value. Structures can show the parent of a compound that is named as a salt.

This experiment has as its system P. Falciparum NF54. In words: Plasmodium falciparum in vitro assay ([3H]-hypoxanthine incorporation). The class given is cell-based. As to conditions: Plasmodium falciparum, Erythrocyte, P. Falciparum NF54, erythrocytic stages in human red blood cells, 50% human serum. In outline:
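This in vitro antimalarial assay used P. falciparum erythrocytic stages cultured in human erythrocytes and measured [3H]-hypoxanthine incorporation. Radioactivity on the dried filters, placed in plastic foil with 10 mL scintillation fluid, was counted in a Betaplate liquid scintillation counter. Sigmoidal inhibition curves built in Microsoft Excel gave the IC50.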
`CCCN1CCC(N(Cc2ccc(Nc3ccnc(C)c3)cc2)C(=O)/C=C/c2ccc(C(F)(F)F)cc2)CC1` [Example 33, (E)-N-[4-(2-Methyl-pyridin-4-ylamino)-benzyl]-N-(1-propyl-piperidin-4-yl)-3-(4-trifluoromethyl-phenyl)-acrylamide] had a pIC50 of 7.38.

As to `Cc1cc(Nc2cccc(CN(C(=O)/C=C/c3ccc(C(F)(F)F)cc3)C3CCN(C(C)C)CC3)n2)ccn1` [Example 129, (E)-N-(1-Isopropyl-piperidin-4-yl)-N-[6-(2-methyl-pyridin-4-ylamino)-pyridin-2-ylmethyl]-3-(4-trifluoromethyl-phenyl)-acrylamide formate], the pIC50 is 7.68.

With `O=C(/C=C/c1ccc(C(F)(F)F)cc1)N(Cc1ccc(-c2cccnc2)cc1)C1CCN(C2CCCC2)CC1` [Example 197, (E)-N-(1-Cyclopentyl-piperidin-4-yl)-N-(4-pyridin-3-yl-benzyl)-3-(4-trifluoromethyl-phenyl)-acrylamide], the pIC50 is 6.74.

`CN(c1ccncc1)c1ccc(CN(C(=O)/C=C/c2ccc(C(F)(F)F)cc2)C2CCN(Cc3ccc(Cl)c(Cl)c3)CC2)cc1` [Example 11, (E)-N-[1-(3,4-Dichloro-benzyl)-piperidin-4-yl]-N-[4-(methyl-pyridin-4-yl-amino)-benzyl]-3-(4-trifluoromethyl-phenyl)-acrylamide] had a pIC50 of 7.08.

As to `Cc1cc(Nc2ccc(CN(C(=O)/C=C/c3ccc(C(F)(F)F)cc3)C3CCN(C4CCCC4)CC3)nc2)ccn1` [Example 170, (E)-N-(1-Cyclopentyl-piperidin-4-yl)-N-[5-(2-methyl-pyridin-4-ylamino)-pyridin-2-ylmethyl]-3-(4-trifluoromethyl-phenyl)-acrylamide], the pIC50 was 7.17.

For `CN(c1ccncc1)c1ccc(CN(C(=O)/C=C/c2ccc(C(F)(F)F)cc2)C2CCN(CC3CC3)CC2)cc1` [Example 9, (E)-N-(1-Cyclopropylmethyl-piperidin-4-yl)-N-[4-(methyl-pyridin-4-yl-amino)-benzyl]-3-(4-trifluoromethyl-phenyl)-acrylamide], the pIC50 is 7.57.

With `CN(c1ccncc1)c1ccc(CN(C(=O)/C=C/c2ccc(C(F)(F)F)cc2)C2CCN(Cc3ccccc3)CC2)cc1` [Example 6, (E)-N-(1-Benzyl-piperidin-4-yl)-N-[4-(methyl-pyridin-4-yl-amino)-benzyl]-3-(4-trifluoromethyl-phenyl)-acrylamide], the pIC50 is 7.24.

As for `CN(c1ccncc1)c1ccc(CN(C(=O)/C=C/c2cccc(F)c2)C2CCN(Cc3ccccc3)CC2)cc1` [Example 156, (E)-N-(1-Benzyl-piperidin-4-yl)-3-(3-fluoro-phenyl)-N-[4-(methyl-pyridin-4-yl-amino)-benzyl]-acrylamide], the pIC50 is 7.00.

With `O=C(/C=C/c1ccc(C(F)(F)F)cc1)N(Cc1ccc(Nc2ccncn2)nc1)C1CCN(C2CCCC2)CC1` [Example 107, (E)-N-(1-Cyclopentyl-piperidin-4-yl)-N-[6-(pyrimidin-4-ylamino)-pyridin-3-ylmethyl]-3-(4-trifluoromethyl-phenyl)-acrylamide], the pIC50 is 6.38.

As to `CC(C)CCN1CCCCC(N(Cc2ccc(N(C)c3ccncc3)cc2)C(=O)/C=C/c2ccc(C(F)(F)F)cc2)C1` (racemic) [Example 72, (±)-(E)-N-(1-isopentylazepan-3-yl)-N-(4-(methyl(pyridin-4-yl)amino)benzyl)-3-(4-(trifluoromethyl)phenyl)acrylamide], the pIC50 is 6.82.

Compound `CN(c1ccncc1)c1ccc(CN(C(=O)/C=C/c2ccc(F)cc2)C2CCN(Cc3ccccc3)CC2)cc1` [Example 155, (E)-N-(1-Benzyl-piperidin-4-yl)-3-(4-fluoro-phenyl)-N-[4-(methyl-pyridin-4-yl-amino)-benzyl]-acrylamide] had a pIC50 of 7.00.

In general, pIC50 refers to the IC50 on a negative log10 scale, so that one unit is a factor of ten.
